Test system: Lewis lung cancer cells
Assay: Tumor growth inhibition assay in vivo of vinorelbine micellar preparation
Design: species or system Balb/c mice
Conditions: for Volume of tumor (mm^3): 5 mg/kg iv on the 1st, 8th and 15th day
Protocol: Fresh Lewis lung cancer cells (ATTC, CRL-1642) were inoculated subcutaneously into the axillary region of right forelimb of Balb/c mice (1×10^7/ml, 0.2 ml/mice). The mice (17-19 g, female) bearing tumor were then randomly divided into three groups, i.e. control group, free vinorelbine group (F-VNR) and vinorelbine micelle group (M-VNR), 6 mice each group. Administration was carried out on the next day to the inoculation. The doses of both F-VNR and M-VNR were 5 mg/kg (drug concentration: 0.5 mg/ml), iv volume 0.1 ml/10 g body weight, and the dose of the control group was iv 0.1 ml/10 g body weight of physiological saline. Dosing was performed once a week and continued for three weeks (dosing on the 1st, 8th and 15th day, respectively), wherein the length (a) and width (b) of the tumors were measured with vernier caliper on the 7th, 10th, 14th, 17th, and 21th day, respectively. The volume of the tumor was calculated according the formula V=a×b^2/2. […] The experiment results were shown in FIG. 5 as well as following table.

**Q.** With `CCC1=C[C@@H]2CN(C1)Cc1c([nH]c3ccccc13)[C@@](C(=O)OC)(c1cc3c(cc1OC)N(C)[C@H]1[C@@](O)(C(=O)OC)[C@H](OC(C)=O)[C@]4(CC)C=CCN5CC[C@]31[C@@H]54)C2` [F-VNR, vinorelbine] as the compound, how does the “effect on growth of Lewis lung cancer tumor (in words)” value (5 mg/kg iv once a week for three weeks) read?
**A.** almost ineffective

**Q.** And the “Volume of tumor (mm^3)” value (7 days)?
**A.** 217 ± 94.5 mm^3

**Q.** And the “Volume of tumor (mm^3)” value (10 days)?
**A.** 810.3 ± 407.6 mm^3

**Q.** What about the “Volume of tumor (mm^3)” value (14 days) of the same compound?
**A.** 1694.3 ± 789.1 mm^3

**Q.** And the “Volume of tumor (mm^3)” value (17 days)?
**A.** 2460.1 ± 1367.1 mm^3

**Q.** What about the “Volume of tumor (mm^3)” value (21 days) of the same compound?
**A.** 5163 ± 2623.8 mm^3
